Assay results from ChEMBL document CHEMBL5214948, “Boronic Acid: A Novel Pharmacophore Targeting Src Homology 2 (SH2) Domain of STAT3” (J Med Chem, 2022).

What was measured:
MGC-803 = experiment: Antiproliferative activity against human MGC-803 cells assessed as reduction in cell viability measured after 72 hrs by CCK-8 assay; format: functional, cell-based; details: MGC-803, 72 h
AGS = experiment: Antiproliferative activity against human AGS cells assessed as reduction in cell viability incubated for 72 hrs by CCK-8 assay; format: functional, cell-based

- IC50 (MGC-803): 3.13 µM
- IC50 (AGS): 1.72 µM
Structure (SMILES): C[C@H](C(=O)N(Cc1ccc(C2CCCCC2)cc1)c1ccc(B(O)O)cc1)N(C)S(=O)(=O)c1c(F)c(F)c(F)c(F)c1F
